{
  "source": "patent US7718764B2",
  "about": "“Biologically active peptide [sequence] derivatives” (CMS Peptides Patent Holding Company Limited, priority 2004, dated 2010)",
  "key": {"Heymann nephritis rats": {"test_system": "Heymann nephritis rats", "experiment": "Heymann nephritis in rats: 24 hr urine protein", "format": "in vivo, Wistar rats", "protocol": "20 healthy Wistar rats were randomized into two groups: peptide (200 μg/kg/day) and saline treatment (2 ml/day). Two ml of antigen were intraperitoneally injected to each rat, once every two weeks, for a total of 5 rounds of injection. Test substance administration by intraperitoneal injection was started on the day after the third immunization, once per day until the end of the experiment.\nQuantification of uriner protein began at the third week of model establishment. A urine sample was collected from each rat over a 24 hour period once every […] the urine protein content quantified by the sulfosalicylic acid method.\nSample values were compared by t-test using SPSS software."}, "mice antibody formation": {"test_system": "mice antibody formation", "experiment": "Mice antibody formation in vivo (SRBC immunisation, serum haemolysis HC50)", "parameters": "species or system BALB/c mice", "procedure": "The mice were randomized into three groups: peptide (200 μg/kg/day), Cyclosporine A (10 mg/kg/day), and saline (0.5 ml). Each group contained 12 mice, 6 female and 6 male. The test substances were dissolved in 0.5 ml saline and applied intraperitoneally once per day for 20 consecutive days.\nSheep red blood cells (SRBC) were resuspended with saline to 2% (v/v) and 0.2 ml of the resuspended cell solution was applied intraperitoneally to each mouse on day 16th of the test substance administration. On the day after the last test substance administration, blood was collected from the inner canthus and left at room temperature for one hour for serum exudation. After centrifugation at 200 g for 10 minutes, the serum was diluted by 200 times with normal saline.\nFor the preparation of the complement working solution, 10 volumes of fresh Cavy serum was added into one volume of centrifuge-packed SRBC. […]\nFor assay of the mice antibody titer, 0.2 ml of 1% SRBC suspension was added to 1 ml diluted ice-cold mouse serum from each mouse. […] To 1 ml of this supernatant, 3 ml Drabkin solution was added and left at room temperature for 10 minutes, and then the OD540nm was measured. The reference lysis-50 reading at OD540nm was determined by following the exact procedure as the sample, except replacing half of the SRBC with saline and without the centrifugation removal of the unlysed SRBC. […]"}, "mice T-lymphocyte [1]": {"test_system": "mice T-lymphocyte", "experiment": "Mice T-lymphocyte transformation induced by ConA in vitro (spleen cells, MTT)", "format": "cell-based, BALB/c mice", "details": "for OD: Table 2, ConA 5 μg/ml, 68 hrs", "protocol": "The spleens from healthy mice were isolated aseptically and manually dispersed in 10% FBS RPMI-1640 solution using an injection needle. The dispersed cell suspension was further sieved through a 100-gauge 150 μm diameter stainless steel sieve. The spleen cell suspension was adjusted to a density of 4×10^6/ml and was aliquoted onto 96-well cell culture plates at 100 μl/well. Peptides were dissolved in plain RPMI-1640. The design of the groupings was as given below.\nPeptide group: 100 μl working peptide solution+75 μl spleen cell suspension+25 μl ConA working solution.\nConA control group: 100 μl RPMI-1640+75 μl spleen cell suspension+25 μl ConA working solution.\nNegative control group: 125 μl RPMI-1640+75 μl spleen cell suspension.\nThe final concentration of ConA in the well was 5 μg/ml. The final concentrations of peptides in the well were 80 μg/ml, 16 μg/ml, 3.2 μg/ml, 0.64 μg/ml, and 0.128 μg/ml. Each peptide group contained three parallel wells, and eight or twelve wells for the control groups. The cells were incubated for 68 hrs at 37° C., 5% CO2. MTT method was used to obtain a reading of OD570 nm of each well referenced at 630 nm on an ELISA reader."}, "Masugi nephritis rabbits [2]": {"test_system": "Masugi nephritis rabbits", "experiment": "Masugi nephritis in rabbits: urine protein", "format": "in vivo", "details": "for proteinuria Week 0: saline treatment 11.72 ± 3.18; for proteinuria Week 1: saline treatment 122 ± 91; for proteinuria Week 2: saline treatment 160 ± 138; for proteinuria Week 3: saline treatment 145 ± 33; for proteinuria Week 4: saline treatment 157 ± 71", "protocol": "(§1) Twenty-two healthy rabbits were randomized into 5 groups: peptide (107.3 μg/kg/day and 58.5 μg/kg/day, 4 rabbits per group), dexamethasone (0.1 mg/kg/day, 4 rabbits), saline treatment (1 ml/day, 7 rabbits), and normal healthy (3 rabbits). Before the establishment of a disease state in the rabbits, measurements of serum BUN, creatinine, and urine protein over 24 hours were taken for each rabbit. If there was no abnormality in these measurements, the Masugi nephritis model was established in experimental rabbits by intravenous injection of sheep anti-rabbit renal cortex antiserum via the auricular vein, 0.5 ml per injection, one injection every 30 minutes, for a total of 4 injections per rabbit. The normal healthy (control) rabbit group was injected with saline in the same manner. Intravenous administration of the test substances via the auricular vein was started on the day after the injection of the antiserum, once per day, 1 ml per injection, for 30 consecutive days.\nUrine was collected from each rabbit over a 24 hour period once per week and the protein content determined by the sulfosalicylic acid method.\n(§2) Statistical significance was determined by the t-test of the SPSS software."}, "Masugi nephritis rabbits [3]": {"test_system": "Masugi nephritis rabbits", "experiment": "Masugi nephritis in rabbits: clearance of sheep anti-rabbit renal cortex IgG antibody (glomerular immunofluorescence)", "format": "in vivo", "details": "saline treatment 8.7 ± 0.9", "protocol": "as §1, with “Before” for “Twenty-two healthy rabbits were randomized into 5 groups: peptide (107.3 μg/kg/day and 58.5 μg/kg/day, 4 rabbits per group), dexamethasone (0.1 mg/kg/day, 4 rabbits), saline treatment (1 ml/day, 7 rabbits), and normal healthy (3 rabbits). Before”\nFor observation of the effects of peptides on the clearance of sheep anti-rabbit renal cortex IgG antibody from Masugi nephritis rabbits, on the day after the last test substance administration, the rabbits were sacrificed by suffocation and the right kidney was extirpated, freeze-edged and then immunofluorescently stained for the presence of sheep IgG. The fluorescence-positive area of each glomerulus was counted. Thirty glomeruli per rabbit were examined and the average positive area per glomerulus was calculated.\nas §2"}, "mice T-lymphocyte [4]": {"test_system": "mice T-lymphocyte", "experiment": "Mice T-lymphocyte transformation in vivo (i.p. dosing 20 days, spleen cells + ConA, MTT, stimulation index)", "parameters": "species or system BALB/c mice", "protocol": "Animals were randomized into two peptide groups (200 μg/kg/day and 50 μg/kg/day), Cyclosporine A group (10 mg/kg/day), and saline group (0.5 ml/day). Each group contained 10 mice, in which half were female and half were male. All test substances were dissolved in 0.5 ml saline and administered intraperitoneally once per day for 20 days. T-lymphocyte transformation and NK cell activity were examined on the day immediately following the last injection. The day after the last test substance administration, the mice were sacrificed by cervical dislocation. The spleens were isolated aseptically and manually dispersed in 10% FBS RPMI-1640 solution using an injection needle. The dispersed cell suspension was further sieved through a 100 gauge 150 μm diameter stainless steel sieve and adjusted to 4×10^6/ml. The cell suspensions were inoculated onto a 96 wells cell culture plate, 100 μl/well with the following design. Assay wells: 100 μl cell suspension+100 μl ConA Control wells: 100 μl cell suspension+100 μl RPMI-1640 Four assay and four control wells were set up for each animal. The plates were incubated at 37° C., 5% CO2 for 68 hours. MTT was then added and the plates read at OD 570 nm referenced at 630 nm with ELISA reader. Stimulation Index SI (%)=(assay well OD/control well OD)×100%."}},
  "data": [
    {"substance": "PLNPK [CMS-010.26]", "values": [
      {"measurement": "24 hr. urine protein concentration Week 3", "setting": "Heymann nephritis rats; 200 μg/kg/day i.p., Week 3, saline treatment 4.1 ± 1.3", "value": "6.2 ± 2.3", "unit": "mg/dL"},
      {"measurement": "24 hr. urine protein concentration Week 5", "setting": "Heymann nephritis rats; 200 μg/kg/day i.p., Week 5, saline treatment 3.1 ± 0.8", "value": "3.1 ± 1.4", "unit": "mg/dL"},
      {"measurement": "24 hr. urine protein concentration Week 7", "setting": "Heymann nephritis rats; 200 μg/kg/day i.p., Week 7, saline treatment 10.9 ± 2.8", "value": "3.9 ± 1.6", "unit": "mg/dL"},
      {"measurement": "24 hr. urine protein concentration Week 9", "setting": "Heymann nephritis rats; 200 μg/kg/day i.p., Week 9, saline treatment 12.6 ± 1.2", "value": "3.8 ± 2.2", "unit": "mg/dL"},
      {"measurement": "Effect on severity of proteinuria in Heymann nephritis rats", "setting": "Heymann nephritis rats; at suitable dosage, vs saline treatment P<0.05", "value": "decrease"},
      {"measurement": "HC50", "setting": "mice antibody formation; 200 μg/kg/day i.p. 20 days, SRBC day 16, saline 167.6 ± 21.5", "value": "141.3 ± 29.3"},
      {"measurement": "Effect on mice antibody formation in vivo", "setting": "mice antibody formation; at suitable dosage, vs saline control P<0.05", "value": "suppress"},
      {"measurement": "OD", "setting": "mice T-lymphocyte [1]; peptide 0.128 μg/ml, ConA control 0.467 ± 0.043", "value": "0.354 ± 0.017"},
      {"measurement": "OD", "setting": "mice T-lymphocyte [1]; peptide 0.64 μg/ml, ConA control 0.467 ± 0.043", "value": "0.348 ± 0.025"},
      {"measurement": "OD", "setting": "mice T-lymphocyte [1]; peptide 3.2 μg/ml, ConA control 0.467 ± 0.043", "value": "0.332 ± 0.015"},
      {"measurement": "OD", "setting": "mice T-lymphocyte [1]; peptide 16 μg/ml, ConA control 0.467 ± 0.043", "value": "0.356 ± 0.006"},
      {"measurement": "OD", "setting": "mice T-lymphocyte [1]; peptide 80 μg/ml, MTT OD570 nm ref 630 nm, ConA control 0.467 ± 0.043, negative control 0.134 ± 0.011", "value": "0.353 ± 0.016"},
      {"measurement": "Effect on mice T-lymphocyte transformation induced by ConA in vitro", "setting": "mice T-lymphocyte [1]; at suitable concentrations, vs ConA positive control P<0.05", "value": "suppress"},
      {"measurement": "proteinuria Week 0", "setting": "Masugi nephritis rabbits [2]; 58.5 μg/kg/day i.v.", "value": "9.53 ± 4.64", "unit": "mg/dL"},
      {"measurement": "proteinuria Week 1", "setting": "Masugi nephritis rabbits [2]; 58.5 μg/kg/day i.v.", "value": "77 ± 62", "unit": "mg/dL"},
      {"measurement": "proteinuria Week 2", "setting": "Masugi nephritis rabbits [2]; 58.5 μg/kg/day i.v.", "value": "150 ± 123", "unit": "mg/dL"},
      {"measurement": "proteinuria Week 3", "setting": "Masugi nephritis rabbits [2]; 58.5 μg/kg/day i.v.", "value": "20 ± 12", "unit": "mg/dL"},
      {"measurement": "proteinuria Week 4", "setting": "Masugi nephritis rabbits [2]; 58.5 μg/kg/day i.v.", "value": "36 ± 16", "unit": "mg/dL"},
      {"measurement": "proteinuria Week 0", "setting": "Masugi nephritis rabbits [2]; 107.3 μg/kg/day i.v.", "value": "9.84 ± 4.29", "unit": "mg/dL"},
      {"measurement": "proteinuria Week 1", "setting": "Masugi nephritis rabbits [2]; 107.3 μg/kg/day i.v.", "value": "187 ± 184", "unit": "mg/dL"},
      {"measurement": "proteinuria Week 2", "setting": "Masugi nephritis rabbits [2]; 107.3 μg/kg/day i.v.", "value": "114 ± 145", "unit": "mg/dL"},
      {"measurement": "proteinuria Week 3", "setting": "Masugi nephritis rabbits [2]; 107.3 μg/kg/day i.v.", "value": "26 ± 24", "unit": "mg/dL"},
      {"measurement": "proteinuria Week 4", "setting": "Masugi nephritis rabbits [2]; 107.3 μg/kg/day i.v.", "value": "28 ± 32", "unit": "mg/dL"},
      {"measurement": "Effect on severity of proteinuria in Masugi nephritis rabbits", "setting": "Masugi nephritis rabbits [2]; vs saline treatment control P<0.05", "value": "decrease"},
      {"measurement": "Positive area count/glomerulus", "setting": "Masugi nephritis rabbits [3]; 58.5 μg/kg/day i.v. 30 days", "value": "6.3 ± 1.4"},
      {"measurement": "Positive area count/glomerulus", "setting": "Masugi nephritis rabbits [3]; 107.3 μg/kg/day i.v. 30 days", "value": "5.6 ± 1.2"},
      {"measurement": "SI", "setting": "mice T-lymphocyte [4]; Table 4, 200 μg/kg/day i.p. 20 days, saline 3.63 ± 0.69", "value": "2.19 ± 0.59"},
      {"measurement": "Effect on mice T-lymphocyte transformation in vivo", "setting": "mice T-lymphocyte [4]; at suitable dosages, vs saline control P<0.05", "value": "suppress"}
    ]}
  ]
}
